Data on twelve molecules can be found in ChEMBL document CHEMBL1124940, “N-[(arylmethoxy)phenyl] carboxylic acids, hydroxamic acids, tetrazoles, and sulfonyl carboxamides. Potent orally active leukotriene D4 antagonists of novel structure” (J Med Chem, 1990).

In data set [1] the test system is Cavia porcellus. Kind of data set: Inhibition of LTD4-induced broncho constriction in Guinea pig after intragastrical administration of a dose of 25 mg/kg. The following applies: po, route intragastric. The class given is functional.
Data set [2] relates to Cavia porcellus. Kind of data set: Inhibition of LTD4-induced broncho constriction in Guinea pig after intragastrical administration of a dose of 3 mg/kg. The class given is functional. Particulars: po, route intragastric.
The subject of data set [3] is Cavia porcellus. The data set is described as follows: Tested for the inhibition of LTD4-induced broncho constriction in Guinea pig, injected intraduodenally at a dose of 25 mg/kg. Format: functional. The following applies: route intraduodenal.
In data set [4] the test system is Cavia porcellus. Kind of data set: Inhibition of LTD4-induced broncho constriction in Guinea pig, compound injected intraduodenally at a dose of 25 mg/kg. The class given is functional. Particulars: route intraduodenal.
The test system of data set [5] is Cavia porcellus. Kind of data set: Inhibition of ovalbumin-induced broncho constriction in Guinea pig after intragastrical administration of a dose of 25 mg/kg. The class given is functional. Particulars: po, route intragastric.
The subject of data set [6] is Cavia porcellus. Kind of data set: Tested for the inhibition of LTD4-induced bronchoconstriction in Guinea pig, injected intragastrically, dose of 25 mg/kg. Format: functional. The following applies: po, route intragastric.
Data set [7] relates to Cavia porcellus. The data set is described as follows: Inhibition of LTD4-induced broncho constriction in Guinea pig after intraduodenal administration of a dose of 25 mg/kg. The class given is functional.
The test system of data set [8] is Cavia porcellus. Kind of data set: -log dissociation constant was determined In vitro in isolated guinea pig trachea after intraduodenal administration (before 10 min). The following applies: in vivo, other. Format: ADME, organism-based.
Data set [9] deals with Cavia porcellus. Kind of data set: In vitro LTD4-induced bronchoconstriction. i n isolated guinea pig trachea by injecting intraduodenally. The class given is functional. The following applies: intraduodenal.
The test system of data set [10] is Cavia porcellus. The data set is described as follows: In vitro inhibition of ovalbumin-induced bronchoconstriction in isolated guinea pig trachea was determined after intraduodenal aministration. Format: functional.
In data set [11] the test system is Cavia porcellus. Kind of data set: Dissociation constant was determined In vitro in isolated guinea pig trachea after intraduodenal administration. Format: ADME, organism-based. The following applies: in vivo, other.
Data set [12] has as its system Cavia porcellus. The data set is described as follows: In vitro for inhibition of ovalbumin-induced bronchoconstriction in isolated guinea pig trachea by injecting intraduodenally. The class given is functional. Particulars: intraduodenal.
The test system of data set [13] is Cavia porcellus. Kind of data set: In vitro inhibition of LTD4-induced bronchoconstriction after intragastrical administration 120 min before agonist into isolated guinea pig trachea. The following applies: po. Format: functional.
The test system of data set [14] is Cavia porcellus. The data set is described as follows: In vitro inhibition of ovalbumin-induced bronchoconstriction after intragastrical administration 120 min before agonist into isolated guinea pig trachea. Format: functional. The following applies: po.
In data set [15] the test system is Cavia porcellus. The data set is described as follows: Examined in vitro for LTD4-induced bronchoconstriction in isolated guinea pig trachea by injecting intraduodenally. Particulars: intraduodenal. Format: functional.
Data set [16] deals with T1, Polyunsaturated fatty acid 5-lipoxygenase (Rattus norvegicus, UniProt P12527).
T1 sequence (P12527 whole entry): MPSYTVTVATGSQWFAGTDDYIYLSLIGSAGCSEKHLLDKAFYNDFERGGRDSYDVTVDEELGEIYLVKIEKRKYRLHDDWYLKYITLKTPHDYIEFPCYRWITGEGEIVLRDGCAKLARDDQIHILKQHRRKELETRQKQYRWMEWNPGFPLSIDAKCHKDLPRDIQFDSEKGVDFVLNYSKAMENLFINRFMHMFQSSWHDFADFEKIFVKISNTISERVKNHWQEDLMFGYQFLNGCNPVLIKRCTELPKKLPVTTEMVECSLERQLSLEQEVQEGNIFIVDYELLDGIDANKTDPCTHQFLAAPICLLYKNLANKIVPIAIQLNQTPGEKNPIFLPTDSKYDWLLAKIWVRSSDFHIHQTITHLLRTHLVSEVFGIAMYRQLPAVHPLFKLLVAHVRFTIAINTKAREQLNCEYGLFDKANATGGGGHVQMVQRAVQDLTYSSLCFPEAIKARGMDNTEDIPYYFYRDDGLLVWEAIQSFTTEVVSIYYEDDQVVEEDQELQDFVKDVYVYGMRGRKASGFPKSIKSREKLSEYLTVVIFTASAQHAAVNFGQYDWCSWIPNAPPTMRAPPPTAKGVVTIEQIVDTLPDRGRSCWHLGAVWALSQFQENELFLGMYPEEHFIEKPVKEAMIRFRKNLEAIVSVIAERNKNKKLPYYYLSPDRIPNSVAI
The data set is described as follows: Concentration for 50% inhibition of A-23187-stimulated radiolabeled 5-HETE and TXB2 synthesis by PMN 5-lipoxygenase. The class given is functional.

For another data set, the target named is T2, Cyclooxygenase (Rattus norvegicus, UniProt P35355+Q63921).
T2 sequence (P35355 whole entry): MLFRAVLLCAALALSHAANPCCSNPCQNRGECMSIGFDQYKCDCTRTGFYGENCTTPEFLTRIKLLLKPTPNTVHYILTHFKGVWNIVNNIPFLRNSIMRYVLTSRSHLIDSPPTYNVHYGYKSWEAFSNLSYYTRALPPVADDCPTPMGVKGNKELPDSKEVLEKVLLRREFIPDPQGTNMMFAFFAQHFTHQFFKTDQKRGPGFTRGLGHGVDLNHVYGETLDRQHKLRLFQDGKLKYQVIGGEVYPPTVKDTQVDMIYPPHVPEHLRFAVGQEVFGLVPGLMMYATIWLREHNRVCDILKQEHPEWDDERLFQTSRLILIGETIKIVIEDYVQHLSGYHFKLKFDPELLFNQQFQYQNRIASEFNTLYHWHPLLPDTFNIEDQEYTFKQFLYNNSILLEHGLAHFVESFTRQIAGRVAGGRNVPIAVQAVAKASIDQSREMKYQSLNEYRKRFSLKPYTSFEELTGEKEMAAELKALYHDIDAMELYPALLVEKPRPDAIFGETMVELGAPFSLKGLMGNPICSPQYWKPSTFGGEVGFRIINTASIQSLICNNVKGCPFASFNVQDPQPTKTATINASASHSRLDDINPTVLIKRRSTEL
T2 sequence (Q63921 whole entry): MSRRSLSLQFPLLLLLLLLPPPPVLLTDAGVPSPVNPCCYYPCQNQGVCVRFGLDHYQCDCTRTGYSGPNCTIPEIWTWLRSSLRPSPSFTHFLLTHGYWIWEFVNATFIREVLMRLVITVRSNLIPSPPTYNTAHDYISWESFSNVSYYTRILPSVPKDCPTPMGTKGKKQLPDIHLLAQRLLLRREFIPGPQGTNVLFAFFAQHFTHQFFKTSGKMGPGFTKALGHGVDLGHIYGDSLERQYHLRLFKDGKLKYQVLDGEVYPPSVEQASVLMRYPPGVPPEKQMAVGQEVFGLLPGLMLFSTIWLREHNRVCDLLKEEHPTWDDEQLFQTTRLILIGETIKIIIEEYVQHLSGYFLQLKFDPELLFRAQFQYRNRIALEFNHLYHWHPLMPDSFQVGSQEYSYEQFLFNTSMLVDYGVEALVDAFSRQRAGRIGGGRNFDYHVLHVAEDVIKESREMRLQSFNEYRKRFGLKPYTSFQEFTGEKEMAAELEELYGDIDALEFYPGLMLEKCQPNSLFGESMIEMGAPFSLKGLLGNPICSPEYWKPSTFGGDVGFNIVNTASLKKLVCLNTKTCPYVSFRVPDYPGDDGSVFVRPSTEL
The data set is described as follows: Concentration for 50% inhibition of A-23187-stimulated radiolabeled 5-HETE and TXB2 synthesis by Prostaglandin G/H synthase. The class given is protein assay.

A further data set relates to Rattus norvegicus. Kind of data set: Antiinflammatory effect was studied in a rat carrageenan paw edema (CE) assay at 50 mg/kg. Format: functional.

A value given as a limit tells only on which side of the number the result lay.

For `c1cc(OCc2ccc3ccccc3n2)cc(-c2nn[nH]n2)c1`, the results for the inhibition in vivo at 25 mg/kg in the data set on Cavia porcellus [1] and in the data set with Cavia porcellus [3] were less than 89% and 90%, respectively. Besides, the inhibition in vivo at 3 mg/kg with Cavia porcellus [2] is 13%.
Turning to `COC(=O)Cc1cccc(OCc2nc3ccccc3s2)c1`, the inhibition in vivo at 25 mg/kg in the data set with Cavia porcellus [1] was less than 33%; in the data set with Cavia porcellus [4], less than 65%.
Turning to `O=C(NO)c1cccc(OCc2ccc3ccccc3n2)c1`, in the data set on Cavia porcellus [3], the inhibition in vivo at 25 mg/kg was less than 33%.
With `Cc1ccc(S(=O)(=O)NC(=O)CCc2cccc(OCc3ccc4ccccc4n3)c2)cc1`, the inhibition in vivo at 25 mg/kg in the data set with Cavia porcellus [5] was less than 26%; in the data set with Cavia porcellus [3], 97%; in the data set with Cavia porcellus [6], less than 66%.
For `O=C(NOCc1ccccc1)c1cccc(OCc2ccc3ccccc3n2)c1`, the inhibition in vivo at 25 mg/kg in the data set with Cavia porcellus [7] is less than 71%; with Cavia porcellus [1] it was less than -14%.
Take `CONC(=O)CCc1cccc(OCc2ccc3ccccc3n2)c1`: in the data set with Cavia porcellus [1], the inhibition in vivo at 25 mg/kg stood at 86%. In the data set with Cavia porcellus [2], the inhibition in vivo at 3 mg/kg was 5%.
As for `c1cc(Cc2nnn[nH]2)cc(OCc2ncc3ccccc3n2)c1`, the inhibition in vivo at 25 mg/kg in the data set on Cavia porcellus [3] was less than 77%.
Turning to `Cc1ccc(S(=O)(=O)NC(=O)Cc2cccc(OCc3ccc4ccccc4n3)c2)cc1`, the inhibition in vivo at 25 mg/kg was less than 16% with Cavia porcellus [1] and less than 75% in the data set on Cavia porcellus [3].
In the data set with Cavia porcellus [8], `COC(=O)CCC(=O)N(O)c1cccc(OCc2ccc3ccccc3n2)c1` gave a pKb of 6.5. Moreover, the ED50 in the data set on Cavia porcellus [9] was 3.3 mg/kg; in the data set on Cavia porcellus [10] it was 27.4 mg/kg.
Take `O=C(Cc1cccc(OCc2ccc3ccccc3n2)c1)NO`: the inhibition in vivo at 25 mg/kg with Cavia porcellus [3] was less than 14%.
In the data set on Cavia porcellus [11], `O=S(=O)(Nc1cccc(OCc2ccc3ccccc3n2)c1)C(F)(F)F` [RITOLUKAST] returned a pKb of 7.7. Further, the ED50 in the data set with Cavia porcellus [12] was determined as 3 mg/kg; with Cavia porcellus [13] it was 0.1 mg/kg; in the data set with Cavia porcellus [14] it was 0.6 mg/kg; in the data set on Cavia porcellus [15], 0.3 mg/kg. In addition, the IC50 in [16] worked out at 2000 nM; against Cyclooxygenase, 9.1 µM.
For the molecule `CC(C)Cc1ccc(C(C)C(=O)O)cc1` (stereo not drawn) [IBUPROFEN], in the data set with Rattus norvegicus, the inhibition in vivo at 50 mg/kg was determined as 63%.
